Assay results as given in US8686150B2 (Sanofi, priority 2011, dated 2014).

Target: T1, human full-length recombinant PKC βII (Homo sapiens, UniProt P05771)
T1 construct: Active human full-length recombinant PKC βII; purchased Invitrogen GmbH, Darmstadt, Germany
Test: Determination of PKC βII inhibition (Caliper mobility-shift kinase assay, Fluorescein-RFARKGSLRQKNV peptide substrate)
Format: biochemical
Conditions: example compounds at a final concentration of 1.14 μM (±0.15 μM)
How it was run: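 Full-length PKC βII (30 ng/ml in pre-dilution) with PS/DAG/Ca2+ activators, pH 7.4; fluorescein peptide and ATP at 3 μM and 120 μM before mixing. Reaction ran 60 min at 32 °C, was EDTA-stopped, and was read by mobility shift. % inhibition came from product/(substrate+product) peak heights, tested at 1.14 μM final.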

T1 sequence (P05771 1-673 isoform P05771-2): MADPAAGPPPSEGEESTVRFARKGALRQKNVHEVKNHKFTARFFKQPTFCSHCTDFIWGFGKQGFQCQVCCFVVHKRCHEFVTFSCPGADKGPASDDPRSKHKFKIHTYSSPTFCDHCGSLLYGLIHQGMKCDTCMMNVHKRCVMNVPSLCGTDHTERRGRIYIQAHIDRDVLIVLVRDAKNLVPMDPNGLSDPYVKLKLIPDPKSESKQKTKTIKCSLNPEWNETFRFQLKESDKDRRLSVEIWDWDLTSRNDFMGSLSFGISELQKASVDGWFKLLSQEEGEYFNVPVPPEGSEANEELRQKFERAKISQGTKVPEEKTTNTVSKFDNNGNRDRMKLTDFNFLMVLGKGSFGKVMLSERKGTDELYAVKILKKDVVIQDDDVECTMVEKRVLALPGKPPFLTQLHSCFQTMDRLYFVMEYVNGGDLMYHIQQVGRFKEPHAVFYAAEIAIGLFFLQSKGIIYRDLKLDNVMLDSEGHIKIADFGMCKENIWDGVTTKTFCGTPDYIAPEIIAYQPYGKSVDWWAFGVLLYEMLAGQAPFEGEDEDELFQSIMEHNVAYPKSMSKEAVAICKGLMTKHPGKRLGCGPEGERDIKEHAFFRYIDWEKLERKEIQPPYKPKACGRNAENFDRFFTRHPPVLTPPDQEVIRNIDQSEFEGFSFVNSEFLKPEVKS

Structure (SMILES)	inhibition at 1.14 µM
CCC1(NC(=O)c2cc(-c3ccc(O)cc3)nc3[nH]nc(C)c23)CCCNC1 (stereo not drawn) [Example 115, 6-(4-Hydroxy-phenyl)-3-methyl-1H-pyrazolo[3,4-b]pyridine-4-carboxylic acid (3-ethyl-piperidin-3-yl)-amide]	83%
Cc1n[nH]c2nc(-c3ccc(O)cc3F)cc(C(=O)NC3(c4ccccc4)CCNCC3)c12 [Example 440, 6-(2-Fluoro-4-hydroxy-phenyl)-3-methyl-1H-pyrazolo[3,4-b]pyridine-4-carboxylic acid (4-phenyl-piperidin-4-yl)-amide]	90%
Cc1n[nH]c2nc(-c3ccc(O)cc3)cc(C(=O)N[C@H]3CC[C@H](N)CC3)c12 [Example 77, 6-(4-Hydroxy-phenyl)-3-methyl-1H-pyrazolo[3,4-b]pyridine-4-carboxylic acid (trans-4-amino-cyclohexyl)-amide]	60%
Cc1n[nH]c2nc(-c3ccc(O)c(F)c3)cc(C(=O)N3CC[C@@H](N(C)C)C3)c12 [Example 347, ((R)-3-Dimethylamino-pyrrolidin-1-yl)-[6-(3-fluoro-4-hydroxy-phenyl)-3-methyl-1H-pyrazolo[3,4-b]pyridin-4-yl]-methanone]	35%
COC(=O)CC1CNCCN1C(=O)c1cc(-c2ccc(O)c(F)c2)nc2[nH]nc(C)c12 (stereo not drawn) [Example 353, {1-[6-(3-Fluoro-4-hydroxy-phenyl)-3-methyl-1H-pyrazolo[3,4-b]pyridine-4-carbonyl]-piperazin-2-yl}-acetic acid methyl ester]	70%
Cc1n[nH]c2nc(-c3ccc(O)cc3)cc(C(=O)N3CCNCC3C(F)(F)F)c12 (stereo not drawn) [Example 114, [6-(4-Hydroxy-phenyl)-3-methyl-1H-pyrazolo[3,4-b]pyridin-4-yl]-(2-trifluoromethyl-piperazin-1-yl)-methanone]	87%
Cc1n[nH]c2nc(-c3ccc(O)cc3)cc(C(=O)NC(CN)c3ccccc3)c12 (stereo not drawn) [Example 104, 6-(4-Hydroxy-phenyl)-3-methyl-1H-pyrazolo[3,4-b]pyridine-4-carboxylic acid (2-amino-1-phenyl-ethyl)-amide]	94%
CCCC1CN(C(=O)c2cc(-c3ccc(O)cc3F)nc3[nH]nc(C)c23)C(CCC)CN1 (stereo not drawn) [Example 441, (2,5-Dipropyl-piperazin-1-yl)-[6-(2-fluoro-4-hydroxy-phenyl)-3-methyl-1H-pyrazolo[3,4-b]pyridin-4-yl]-methanone]	96%
Cc1cc(O)ccc1-c1cc(C(=O)N2CCNCC2c2ccccc2Cl)c2c(C)n[nH]c2n1 (stereo not drawn) [Example 153, [2-(2-Chloro-phenyl)-piperazin-1-yl]-[6-(4-hydroxy-2-methyl-phenyl)-3-methyl-1H-pyrazolo[3,4-b]pyridin-4-yl]-methanone]	89%
Cc1n[nH]c2nc(-c3ccc(O)cc3)cc(C(=O)N3CCNC(C(F)(F)F)C3)c12 (stereo not drawn) [Example 196, [6-(4-Hydroxy-phenyl)-3-methyl-1H-pyrazolo[3,4-b]pyridin-4-yl]-(3-trifluoromethyl-piperazin-1-yl)-methanone]	75%
Cc1n[nH]c2nc(-c3ccc(O)cc3)cc(C(=O)N3CCNCC3c3cccc(F)c3F)c12 (stereo not drawn) [Example 85, [2-(2,3-Difluoro-phenyl)-piperazin-1-yl]-[6-(4-hydroxy-phenyl)-3-methyl-1H-pyrazolo[3,4-b]pyridin-4-yl]-methanone]	98%
Cc1n[nH]c2nc(-c3ccc(O)cc3F)cc(C(=O)N3CC(C)NCC3(C)C)c12 (stereo not drawn) [Example 434, [6-(2-Fluoro-4-hydroxy-phenyl)-3-methyl-1H-pyrazolo[3,4-b]pyridin-4-yl]-(2,2,5-trimethyl-piperazin-1-yl)-methanone]	106%
Cc1ccc(C(=O)N2CCN(C(=O)c3cc(-c4ccc(O)cc4)nc4[nH]nc(C)c34)CC2)cc1 [Example 267, [6-(4-Hydroxy-phenyl)-3-methyl-1H-pyrazolo[3,4-b]pyridin-4-yl]-[4-(4-methyl-benzoyl)-piperazin-1-yl]-methanone]	32%
Cc1n[nH]c2nc(-c3ccc(O)c(F)c3)cc(C(=O)N[C@H]3C[C@@H]3N)c12 (racemic) [Example 307, 6-(3-Fluoro-4-hydroxy-phenyl)-3-methyl-1H-pyrazolo[3,4-b]pyridine-4-carboxylic acid (trans-2-amino-cyclopropyl)-amide]	59%
Cc1n[nH]c2nc(-c3c(F)cc(O)cc3F)cc(C(=O)N3CCNCC3(C)C)c12 [Example 135, [6-(2,6-Difluoro-4-hydroxy-phenyl)-3-methyl-1H-pyrazolo[3,4-b]pyridin-4-yl]-(2,2-dimethyl-piperazin-1-yl)-methanone]	96%
CCc1n[nH]c2nc(-c3ccc(O)cc3)cc(C(=O)NC3CCCN(C)C3)c12 (stereo not drawn) [Example 180, 3-Ethyl-6-(4-hydroxy-phenyl)-1H-pyrazolo[3,4-b]pyridine-4-carboxylic acid (1-methyl-piperidin-3-yl)-amide]	53%
Cc1n[nH]c2nc(-c3ccc(O)c(F)c3)cc(C(=O)N3CCC4(CCNC4)CC3)c12 [Example 341, (2,8-Diaza-spiro[4.5]dec-8-yl)-[6-(3-fluoro-4-hydroxy-phenyl)-3-methyl-1H-pyrazolo[3,4-b]pyridin-4-yl]-methanone]	53%

Structure (SMILES)	inhibition at 1.14 µM
CCc1n[nH]c2nc(-c3ccc(O)cc3)cc(C(=O)NC3CCNC4(CCC4)C3)c12 (stereo not drawn) [Example 168, 3-Ethyl-6-(4-hydroxy-phenyl)-1H-pyrazolo[3,4-b]pyridine-4-carboxylic acid (5-aza-spiro[3.5]non-8-yl)-amide]	44%
Cc1n[nH]c2nc(-c3ccc(O)c(F)c3)cc(C(=O)NC3CC4CC3CN4)c12 (stereo not drawn) [Example 350, 6-(3-Fluoro-4-hydroxy-phenyl)-3-methyl-1H-pyrazolo[3,4-b]pyridine-4-carboxylic acid (2-aza-bicyclo[2.2.1]hept-5-yl)-amide]	77%
Cc1n[nH]c2nc(-c3ccc(O)cc3F)cc(C(=O)N3CCC(N)(c4ccccc4)CC3)c12 [Example 415, (4-Amino-4-phenyl-piperidin-1-yl)-[6-(2-fluoro-4-hydroxy-phenyl)-3-methyl-1H-pyrazolo[3,4-b]pyridin-4-yl]-methanone]	90%
Cc1n[nH]c2nc(-c3ccc(O)cc3)cc(C(=O)NC3CCNC4(CCC4)C3)c12 (stereo not drawn) [Example 204, 6-(4-Hydroxy-phenyl)-3-methyl-1H-pyrazolo[3,4-b]pyridine-4-carboxylic acid (5-aza-spiro[3.5]non-8-yl)-amide]	82%
Cc1n[nH]c2nc(-c3ccc(O)c(F)c3)cc(C(=O)N3CCNC[C@@H]3C)c12 [Example 313, [6-(3-Fluoro-4-hydroxy-phenyl)-3-methyl-1H-pyrazolo[3,4-b]pyridin-4-yl]-((S)-2-methyl-piperazin-1-yl)-methanone]	99%
Cc1n[nH]c2nc(-c3ccc(O)cc3)cc(C(=O)N3CCNCC3Cc3ccccc3)c12 (stereo not drawn) [Example 217, (2-Benzyl-piperazin-1-yl)-[6-(4-hydroxy-phenyl)-3-methyl-1H-pyrazolo[3,4-b]pyridin-4-yl]-methanone]	93%
Cc1n[nH]c2nc(-c3ccc(O)cc3)cc(C(=O)N3C[C@@H](C)N[C@@H](C)C3)c12 [Example 24, ((3R,5S)-3,5-Dimethyl-piperazin-1-yl)-[6-(4-hydroxy-phenyl)-3-methyl-1H-pyrazolo[3,4-b]pyridin-4-yl]-methanone]	95%
Cc1n[nH]c2nc(-c3ccc(O)cc3)cc(C(=O)NC3CC4CCCC(C3)N4C)c12 (stereo not drawn) [Example 223, 6-(4-Hydroxy-phenyl)-3-methyl-1H-pyrazolo[3,4-b]pyridine-4-carboxylic acid (9-methyl-9-aza-bicyclo[3.3.1]non-3-yl)-amide]	74%
Cc1n[nH]c2nc(-c3ccc(O)c(F)c3)cc(C(=O)NC3CCCNC3)c12 (stereo not drawn) [Example 349, 6-(3-Fluoro-4-hydroxy-phenyl)-3-methyl-1H-pyrazolo[3,4-b]pyridine-4-carboxylic acid piperidin-3-ylamide]	81%
CCCc1n[nH]c2nc(-c3ccc(O)cc3)cc(C(=O)N3CCNCC3)c12 [Example 4]	86%
CC(=O)N1CCN(C(=O)c2cc(-c3ccc(O)cc3)nc3[nH]nc(C)c23)CC1 [Example 265, 1-{4-[6-(4-Hydroxy-phenyl)-3-methyl-1H-pyrazolo[3,4-b]pyridine-4-carbonyl]-piperazin-1-yl}-ethanone]	87%
Cc1n[nH]c2nc(-c3ccc(O)cc3F)cc(C(=O)N3CCNCC3C(F)(F)F)c12 (stereo not drawn) [Example 60, [6-(2-Fluoro-4-hydroxy-phenyl)-3-methyl-1H-pyrazolo[3,4-b]pyridin-4-yl]-(2-trifluoromethyl-piperazin-1-yl)-methanone]	98%
CCc1n[nH]c2nc(-c3ccc(O)cc3)cc(C(=O)NC3CC4CCCC(C3)N4C)c12 (stereo not drawn) [Example 184, 3-Ethyl-6-(4-hydroxy-phenyl)-1H-pyrazolo[3,4-b]pyridine-4-carboxylic acid (9-methyl-9-aza-bicyclo[3.3.1]non-3-yl)-amide]	22%
Cc1n[nH]c2nc(-c3ccc(O)cc3)cc(C(=O)NC3CNCC3c3ccccc3)c12 (stereo not drawn) [Example 45, 6-(4-Hydroxy-phenyl)-3-methyl-1H-pyrazolo[3,4-b]pyridine-4-carboxylic acid (4-phenyl-pyrrolidin-3-yl)-amide]	84%
Cc1n[nH]c2nc(-c3ccc(O)cc3)cc(C(=O)N3CCC(N)C3)c12 (stereo not drawn) [Example 264, (3-Amino-pyrrolidin-1-yl)-[6-(4-hydroxy-phenyl)-3-methyl-1H-pyrazolo[3,4-b]pyridin-4-yl]-methanone]	88%
CCc1n[nH]c2nc(-c3ccc(O)cc3)cc(C(=O)N3CC[C@H](N(C)C)C3)c12 [Example 177, ((S)-3-Dimethylamino-pyrrolidin-1-yl)-[3-ethyl-6-(4-hydroxy-phenyl)-1H-pyrazolo[3,4-b]pyridin-4-yl]-methanone]	50%
